Results as given in patent publication US10487058B2, “Cyclopropyl unsaturated quinoline compound used as leukotriene receptor antagonist and applications thereof” (Guangdong Moltech Pharma Co. Ltd, priority 2015, dated 2019).

Experiments:
[1] = tested on: histamine and acetylcholine induced asthma guinea pigs; test: Anti-asthmatic effect of CS-0090-2 on histamine and acetylcholine induced asthma guinea pigs; format: in vivo, guinea pig
guinea pig asthma models = test: Anti-asthmatic effect of CS-0090-1 on guinea pig asthma models (histamine/acetylcholine atomization); format: in vivo
KM mice = details: oral gavage three times in one day, observed 7 days
[2] = tested on: histamine and acetylcholine induced asthma guinea pigs; test: Anti-asthmatic effect of CS-0090-4 on histamine and acetylcholine induced asthma guinea pigs; format: in vivo, guinea pig
Experimental: 0.2 g choline and 0.01 g histamine were weighed and put into beakers respectively, and then respectively each beaker were added with 10 ml distilled water and blended to homogeneity.
The healthy guinea pigs with body weight of 180 to 220 g were taken and placed in a closed glass bell jar one by one firstly; after the guinea pigs became quiet, an atomization apparatus was started to spray an asthma-induced medical liquid (a solution of 2% acetylcholine chloride and 0.1% histamine phosphate mixed in equal volume) until the guinea pigs tumbled, then the pulverization was stopped, and the asthma latent period (time period from the beginning of pulverization to onset of asthma and dyspnea, till convulsions and tumble) was observed, and qualified animals having a asthma latent period ≤120 s were screened.
The qualified guinea pigs screened were randomly divided into four groups, which were a high-dosage group, a median-dosage group, a low-dosage group, and a positive control group. The guinea pigs in each group were subjected to oral gavage administration continuously for 7 days with a dosage of 1 ml/100 g. The induced asthma latent period was determined in 1 h after administration on the last day.

[3] = 3 mg·kg^−1 group, self-control baseline

CC(C)(O)c1ccccc1CC[C@@H](SCC1(CC(=O)O)CC1)c1cccc(/C=C/c2ccc3ccc(Cl)cc3n2)c1 [Montelukast]
Induced asthma latent period (s) within 6 min Before administration [1, 3]: 48.2 ± 4.6 s | Induced asthma latent period (s) within 6 min After administration ([1]; 3 mg·kg^−1 oral gavage 7 days, 1 h after last dose, capped at 360 s): 59.8 ± 7.1 s | Induced asthma latent period before administration (guinea pig asthma models; [3]): 48.17 ± 4.62 s | Induced asthma latent period after administration (guinea pig asthma models; 3 mg·kg^−1 oral gavage once a day for 7 days, 1 h after last dose, capped at 6 min): 63.00 ± 7.13 s | maximum dosage (KM mice): 2280 mg/kg | Asthma latent period before administration [2, 3]: 48.17 ± 4.62 | Asthma latent period after administration ([2]; 3 mg·kg^−1 oral gavage 7 days, 1 h after last dose): 59.83 ± 7.08
